Eight compounds from patent US6503952B2, “Triple antimicrobial composition” (The Trustees of Columbia University in the City of New York, priority 1995, dated 2003) can be followed below.

For assay [1], the system named is Staphylococcus aureus. The experiment in a line: Colony counts with CHX and PCMX (in 5% isopropanol) in the presence of blood. The format is cell-based. The settings on record: Table 11: in 5% isopropanol, control 3 × 10^6. The procedure: […] After one minute, a 50 microliter aliquot from each sample was diluted to a volume of 10 ml with LTSB drug inactivating medium (5% Tween 80, 2% lecithin, 0.6% sodium oleate, 0.5% sodium thiosulfate, 0.1% protease peptone and 0.1% tryptone), and then 0.5 ml of the diluted culture was plated on trypticase soy agar plates. The plates were incubated at 37° C. for 24 hours, and then colony counts per milliliter of the original 1 ml antimicrobial containing culture were determined.

In assay [2] the test system is Staphylococcus aureus. The experiment in a line: Rate of kill: colony counts after one minute exposure of Staphylococcus aureus in TSB broth with 20% serum. The class given is cell-based. The settings on record: for CFU/mL: Table 15: single agent, control 2.0 × 10^7. The protocol: To produce each sample, 0.1 ml of a ten-fold concentrated antimicrobial solution was added to 0.9 ml of TSB broth containing 20% serum and 107 colony forming units (CFU) of Staphylococcus aureus. After one minute, a 50 microliter aliquot from each sample was diluted to a volume of 10 ml with LTSB drug inactivating medium (5% Tween 80, 2% lecithin, 0.6% sodium oleate, 0.5% sodium thiosulfate, 0.1% protease peptone and 0.1% tryptone), and then 0.5 ml of the diluted culture was plated on trypticase soy agar plates. The plates were incubated at 37° C. for 24 hours, and then colony counts per milliliter of the original 1 ml antimicrobial containing culture were determined.
Using the same methods set forth in example section 5, above, the rate of kill of compositions comprising PHMB, PCMX, BZK and PXE were tested. […] Synergy was also observed among 0.1% PXE+0.05% PHMB+0.05% PCMX.

For `[H]/N=C(\N/C(=N/[H])NCCCCCCNC(=N)NC(=N)Nc1ccc(Cl)cc1)Nc1ccc(Cl)cc1` [1% CHX, chlorhexidine], the CFU/ml in assay [1] is recorded as 1 × 10^4 CFU/ml.
As to `[H]/N=C(\N/C(=N/[H])NCCCCCCNC(=N)NC(=N)Nc1ccc(Cl)cc1)Nc1ccc(Cl)cc1` [.5% CHX, chlorhexidine], in assay [1], the CFU/ml is listed as 1 × 10^5 CFU/ml.
For the compound benzalkonium chloride [BZK], the CFU/mL in assay [2] (concentration 0.02%) is reported as 2.0 × 10^7 CFU/mL.
In the case of parachlorometaxylenol [.5% PCMX], the CFU/ml in assay [1] came out at 0 CFU/ml.
For parachlorometaxylenol [.25% PCMX], in assay [1], the CFU/ml was 1.4 × 10^4 CFU/ml.
On to parachlorometaxylenol [.125% PCMX], for which, in assay [1], the CFU/ml is 1 × 10^6 CFU/ml.
For parachlorometaxylenol [PCMX], the “decrease in the number of CFU relative to control (factor / fold)” value in assay [2] (2.5% ISOPR samples, relative to the control named in the text (A1, A2, A4 or the no-antimicrobial control)) is on record as “ten”. Besides, the CFU/mL in assay [2] (concentration 0.05%) is given as 5.0 × 10^6 CFU/mL; in assay [2] (concentration 0.1%), 1.6 × 10^3 CFU/mL.
Regarding polyhexamethylene biguanide [PHMB], the values for the CFU/mL in assay [2] (concentration 0.025%), in assay [2] (concentration 0.05%) and in assay [2] (concentration 0.1%) were 5.0 × 10^6 CFU/mL, 2.0 × 10^6 CFU/mL and 4.0 × 10^6 CFU/mL, respectively.
